Consider one compound from article PMC12333015, “Profiling the Impact of mGlu7/Elfn1 Protein Interactions on the Pharmacology of mGlu7 Allosteric Modulators” (ACS Chemical Neuroscience, 2025).

The target of the assay is T1, mGlu7/Elfn1 (Rattus norvegicus, UniProt P35400).
T1 construct: expressed in transfected cells; host or cells: HEK293A mGlu7/GIRK cells cocultured with HEK293A polyclonal cells stably expressing Elfn1-Myc (pcDNA3)
The experiment in a line: Thallium flux assay, mGlu7/GIRK HEK293 cells cocultured with Elfn1-expressing cells. It counts as cell-based, mouse Elfn1. Particulars: for EC50: L-AP4 pEC50 ± SEM, Elfn1, DMSO vehicle. From the text:
We began our evaluation of mGlu7 ligands in the presence and absence of Elfn1 by using a coculture system as previously described , with several modifications (Figure ). Cells expressing rat mGlu7 and coexpressing G protein inwardly rectifying potassium (GIRK) channels 1 and 2 were cocultured with cells expressing either an empty pcDNA3 vector control or a plasmid containing Elfn1 in the pcDNA3 backbone. We then evaluated the activity of the orthosteric agonist L-AP4 and measured effects on maximal response and pEC50. All responses were normalized to the maximal effect of L-AP4 in the presence of the pcDNA3 control plasmid.
2 Assay design and workflow. (Left panel) Cells expressing rat mGlu7/GIRK (pink) were cocultured with pcDNA3 (blue) or Elfn1 (purple). […] (Right panel) The effect on the concentration–response curve in the presence (purple) or absence (blue) of Elfn1 can be seen by a change in efficacy, potency, and/or basal response.
HEK293A polyclonal cells stably expressing either Elfn1 or empty vector were passaged in media (Dulbecco’s modified Eagle medium (DMEM), supplemented with 10% fetal bovine serum (FBS), 20 mM N-(2-hydroxyethyl)-piperazine-N′-ethanesulfonic acid (HEPES), 1 mM Na pyruvate, 2 mM Glutamax, 0.1 mM nonessential amino acids, 1× antibiotic/antimycotic) under G418 (700 μg/mL) selection to maintain expression.
HEK293A cells stably expressing mouse Elfn1 or pcDNA3 were maintained in growth medium containing 90% Dulbecco’s Modified Eagle Media (DMEM), 10% fetal bovine serum (FBS), 100 units/mL penicillin/streptomycin, 20 mM HEPES, 1 mM sodium pyruvate, 2 mM L-glutamine, 1× nonessential amino acids, and 700 μg/mL G418 sulfate. HEK mGlu7/GIRK cells were maintained in a growth medium with 90% DMEM/F12, 10% dialyzed FBS, 100 units/mL penicillin/streptomycin, 20 mM HEPES, 1 mM sodium pyruvate, 2 mM L-glutamine, 1× nonessential amino acids, 700 μg/mL G418 sulfate, and 600 ng/mL puromycin. All cell culture reagents were purchased from Invitrogen (Carlsbad, CA).
Thallium flux assays were performed as previously described. A mixture of HEK293A mGlu7/GIRK cells and pcDNA3 or Elfn1-expressing HEK293A cells (5000/15,000 cells/20 μL/well for agonist and PAM experiments; 7500/15,000 cells/20 μL/well for NAM experiments) was seeded in 384-well, amine-coated assay plates (Greiner Bio-One, Monroe, NC). Cells were incubated overnight in a humidified 5% CO2 cell culture incubator at 37 °C. […] Following a 1 h incubation at room temperature, the dye loading solution was replaced with 20 μL/well assay buffer and the plates were loaded into a Hamamatsu FDSS 7000 (Bridgewater, NJ). Data were acquired at 1 Hz (excitation 470 ± 20 nm, emission 540 ± 30 nm) for 10 s, followed by the addition of 20 μL/well of 10 μM NAM/PAM/DMSO, followed by an additional 4 min of data collection. […] Thallium flux data were analyzed by first dividing each point in each wave by the first point in that wave and then subtracting the average of the vehicle control response. The slopes of these vehicle control-subtracted waves were calculated over ten data points beginning 2 s after thallium stimulus addition and fit to a three-parameter logistic equation in GraphPad Prism (La Jolla, CA). In most cases, the final data were normalized to the response of the mGlu7/pcDNA3 with vehicle and 5 mM L-AP4 unless otherwise noted. Potency (pEC50) and maximum responses (E max) induced by compounds were determined using a four-parameter logistical equation in Prism.

T1 sequence (P35400 35-915): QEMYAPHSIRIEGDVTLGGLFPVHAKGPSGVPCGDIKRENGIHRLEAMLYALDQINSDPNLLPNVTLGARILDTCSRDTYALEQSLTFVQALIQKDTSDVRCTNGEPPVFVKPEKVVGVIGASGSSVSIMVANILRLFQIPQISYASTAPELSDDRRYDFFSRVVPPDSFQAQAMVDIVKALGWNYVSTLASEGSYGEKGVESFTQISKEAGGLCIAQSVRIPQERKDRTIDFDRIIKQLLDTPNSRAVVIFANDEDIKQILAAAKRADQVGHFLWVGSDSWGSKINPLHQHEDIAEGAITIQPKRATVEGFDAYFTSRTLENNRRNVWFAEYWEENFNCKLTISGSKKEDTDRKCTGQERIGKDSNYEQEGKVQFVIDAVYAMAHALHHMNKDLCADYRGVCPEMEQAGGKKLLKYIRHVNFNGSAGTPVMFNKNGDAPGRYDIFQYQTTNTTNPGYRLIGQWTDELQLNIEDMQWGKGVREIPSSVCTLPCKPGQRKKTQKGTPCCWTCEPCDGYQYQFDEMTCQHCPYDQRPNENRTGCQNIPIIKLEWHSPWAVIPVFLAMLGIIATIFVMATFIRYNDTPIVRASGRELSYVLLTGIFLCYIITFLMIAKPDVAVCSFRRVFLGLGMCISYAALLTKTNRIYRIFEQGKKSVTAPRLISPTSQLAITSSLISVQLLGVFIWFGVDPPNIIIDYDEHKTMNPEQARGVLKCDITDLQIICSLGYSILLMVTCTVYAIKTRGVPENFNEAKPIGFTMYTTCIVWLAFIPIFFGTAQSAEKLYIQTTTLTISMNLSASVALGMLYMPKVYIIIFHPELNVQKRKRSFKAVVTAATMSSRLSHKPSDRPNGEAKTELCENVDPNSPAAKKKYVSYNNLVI
T1 sequence (Q8C8T7 26-828 partner): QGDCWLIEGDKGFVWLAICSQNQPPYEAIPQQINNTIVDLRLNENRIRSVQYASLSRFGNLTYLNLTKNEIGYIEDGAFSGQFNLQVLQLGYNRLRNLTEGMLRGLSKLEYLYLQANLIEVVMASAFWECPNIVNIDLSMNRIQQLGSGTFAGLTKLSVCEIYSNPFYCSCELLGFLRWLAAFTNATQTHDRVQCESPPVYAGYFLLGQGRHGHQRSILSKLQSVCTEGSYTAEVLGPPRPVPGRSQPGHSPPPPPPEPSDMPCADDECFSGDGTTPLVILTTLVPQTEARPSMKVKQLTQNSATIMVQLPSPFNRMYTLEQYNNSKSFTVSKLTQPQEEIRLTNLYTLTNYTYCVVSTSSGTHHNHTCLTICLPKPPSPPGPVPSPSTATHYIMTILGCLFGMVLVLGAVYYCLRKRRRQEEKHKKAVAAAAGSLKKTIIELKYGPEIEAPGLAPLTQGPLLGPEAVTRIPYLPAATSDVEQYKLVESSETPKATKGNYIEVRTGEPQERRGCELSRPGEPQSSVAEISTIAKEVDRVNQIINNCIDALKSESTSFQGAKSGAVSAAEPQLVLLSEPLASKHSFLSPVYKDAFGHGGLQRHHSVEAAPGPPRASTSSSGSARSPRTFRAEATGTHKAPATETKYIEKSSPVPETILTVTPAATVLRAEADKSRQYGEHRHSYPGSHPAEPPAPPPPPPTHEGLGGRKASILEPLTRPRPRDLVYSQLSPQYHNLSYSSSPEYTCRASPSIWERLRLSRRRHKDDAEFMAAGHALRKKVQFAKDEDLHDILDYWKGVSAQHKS

The compound `N[C@@H](CCP(=O)(O)O)C(=O)O` [L-AP4, L-2-amino-4-phosphonobutyric acid, reference compound] gave an EC50 (agonist alone (DMSO row of Table 2)) of 324 µM and an EC50 (agonist alone (DMSO row of Table S1)) of 200 µM. Besides, under “eight experiments, p < 0.001”, the “maximal response to L-AP4 with Elfn1 versus pcDNA3” value is listed as “significantly reduced”. The “pEC50 of L-AP4 with Elfn1 versus pcDNA3” value (eight experiments, p < 0.01) is “significantly reduced”.
